Where two headings read alike, the source gives them in different places.
Experiments:
[1] = Varying humidity (VH)-XRPD; type: physicochemical
Experimental: During the sorption phase, sodium salt Pattern 2 was observed between 40-60% RH. […] A mixture of sodium salt Pattern 2 and 5 was also observed at 80% RH. […] During the second desorption, from 90% RH to 40% RH, sodium salt Pattern 5 was maintained.
VH-XRPD analysis was carried out between 40-0% RH (FIG. 5L).

[2] = for HPLC Conc./: based on free acid
Text: pH-dependent solubility of the HBI- 3808 sodium salt of Pattern 2 was studied.
pH dependent solubility of the HBI- 3808 sodium salt of Pattern 5 was studied.

[3] = Dynamic vapor sorption (DVS) analysis; type: physicochemical
Experimental: GC analysis indicated residual solvent contents of 2847 ppm methanol; and 27 ppm TBME. […] No residual methanol or TBME was detected due to signal over-lap. […] TG-DSC analysis indicated two weight losses. The first weight loss of 2.3 wt. % was observed between 20-170° C. […] In the DSC thermogram, three endothermic events were observed (FIG. 17I). […] FT-IR (FIG. 17J) and Raman spectra (FIG. 17K) were recorded for reference. […] XRPD pattern of the ethanolamine salt was retained post-DVS (FIG. 17N). […] However, at the end of the experiment the solids on the microscope slide had discolored (FIG. 17O).

[4] = Stability study at 25° C./60% RH, 40° C./75% RH and 60° C. (XRPD, HPLC purity, impurity tracking); conditions: for XRPD: number = sodium salt XRPD Pattern; for RRT 0.801 / RRT 0.959 / RRT 1.000 (HBI-3808) / RRT 1.025 (Isomer of HBI-3808) / RRT 1.767 / Total Impurities / RRT 1.932: impurity tracking
Text: Stability of HBI-3808 Sodium Salt Pattern 2 was studied over 13 weeks.
Table 2F presents impurity tracking results from a 13-week stability study of HBI-3808 sodium salt of Pattern 2. […]

[5] = Hydration study in methanol/water aw 0.1, 0.5 and 0.9; type: physicochemical
Text: Hydration studies of ethanolamine salt.

[6] = 40° C./75% RH (open vial), 1 Week
[7] = 40° C./75% RH (open vial), 2 Weeks
[8] = 40° C./75% RH (open vial), 4 Weeks

CC1CCC2(C(=O)[O-])CCC3(C)C(=CCC4C5(C)CC(O)C(O)C(C)(CO)C5CCC43C)C2C1(C)O.[Na+] (stereo not shown) [HBI-3808 sodium salt of Pattern 5, sodium salt of 23-hydroxytormentic acid]
XRPD pattern / form stability over relative humidity ([1]; 0-90% RH): stable to relative humidity between 90-0% RH
XRPD pattern during desorption ([1]; 40-0% RH, 30° C.): no change in diffractogram
final Measured pH ([2]; FaSSGF): 9.34
HPLC Conc./ ([2]; FaSSGF): >150.33 mg/mL
concentration ([2]; pH 1.2): < 1000 ng/mL
HPLC Conc./ ([2]; target pH 1.2 chloride buffer, start 200 mg/mL (ethanolamine salt 100 mg/mL)): <0.001 mg/mL
HPLC Conc./ ([2]; target pH 3.0 acetate buffer): <0.001 mg/mL
HPLC Conc./ ([2]; target pH 4.0 acetate buffer): <0.001 mg/mL
HPLC Conc./ ([2]; target pH 6.8 phosphate buffer): 0.25 mg/mL
HPLC Conc./ ([2]; target pH 8.0 phosphate buffer): 12.84 mg/mL
XRPD of recovered material post-DVS [3]: consistent with HBI-3808 sodium salt of Pattern 5
reversibility of mass uptake/loss ([3]; Pattern 2: second DVS cycle): reversible
water (mass) uptake ([3]; at 80% RH/25° C. (Pattern 2: second DVS cycle)): 0.8 wt. %
HPLC/ % area ([4]; 25° C./60% RH (open vial), 1 Week): 96.4 % area
XRPD ([4]; 25° C./60% RH (open vial), 1 Week, * Traces of sodium salt Pattern 2): 5
HPLC/ % area ([4]; 25° C./60% RH (open vial), 2 Weeks): 96.7 % area
XRPD ([4]; 25° C./60% RH (open vial), 2 Weeks, * Traces of Pattern 2): 5
HPLC/ % area ([4]; 25° C./60% RH (open vial), 4 Weeks): 96.3 % area
XRPD ([4]; 25° C./60% RH (open vial), 4 Weeks, * Traces of Pattern 2): 5
HPLC/ % area [4, 6]: 96.7 % area
XRPD [4, 6]: 5
HPLC/ % area [4, 7]: 97.5 % area
XRPD [4, 7]: 5
HPLC/ % area [4, 8]: 96.6 % area
XRPD [4, 8]: 5
HPLC/ % area ([4]; 60° C. (closed vial), 1 Week): 96.1 % area
XRPD ([4]; 60° C. (closed vial), 1 Week): 5
HPLC/ % area ([4]; 60° C. (closed vial), 2 Weeks): 97.3 % area
XRPD ([4]; 60° C. (closed vial), 2 Weeks): 5
HPLC/ % area ([4]; 60° C. (closed vial), 4 Weeks): 96.1 % area
XRPD ([4]; 60° C. (closed vial), 4 Weeks): 5
change in chemical purity by HPLC over the stability study ([4]; all conditions (25° C./60% RH; 40° C./75% RH; 60° C.), 13 weeks (Pattern 5: 4 weeks)): no significant decrease in chemical purity
XRPD pattern over the stability study ([4]; all conditions, 4 weeks (Pattern 5), 13 weeks (ethanolamine salt)): Sodium salt Pattern 5 was retained
RRT 0.801 ([4]; 25° C./60% RH, 1 week): 0.37 % area
RRT 0.959 ([4]; 25° C./60% RH, 1 week): 0.14 % area
RRT 1.000 (HBI-3808) ([4]; 25° C./60% RH, 1 week): 96.39 % area
RRT 1.025 (Isomer of HBI-3808) ([4]; 25° C./60% RH, 1 week): 2.67 % area
RRT 1.767 ([4]; 25° C./60% RH, 1 week): 0.43 % area
Total Impurities ([4]; 25° C./60% RH, 1 week): 3.61 % area
RRT 0.801 ([4]; 25° C./60% RH, 2 weeks): 0.30 % area
RRT 1.000 (HBI-3808) ([4]; 25° C./60% RH, 2 weeks): 96.96 % area
RRT 1.025 (Isomer of HBI-3808) ([4]; 25° C./60% RH, 2 weeks): 2.74 % area
Total Impurities ([4]; 25° C./60% RH, 2 weeks): 3.04 % area
RRT 0.801 ([4]; 25° C./60% RH, 4 weeks): 0.26 % area
RRT 0.959 ([4]; 25° C./60% RH, 4 weeks): 0.13 % area
RRT 1.000 (HBI-3808) ([4]; 25° C./60% RH, 4 weeks): 96.33 % area
RRT 1.025 (Isomer of HBI-3808) ([4]; 25° C./60% RH, 4 weeks): 2.76 % area
RRT 1.767 ([4]; 25° C./60% RH, 4 weeks): 0.30 % area
RRT 1.932 ([4]; 25° C./60% RH, 4 weeks): 0.21 % area
Total Impurities ([4]; 25° C./60% RH, 4 weeks): 3.67 % area
RRT 0.801 ([4]; 40° C./75% RH, 1 week): 0.34 % area
RRT 0.959 ([4]; 40° C./75% RH, 1 week): 0.13 % area
RRT 1.000 (HBI-3808) ([4]; 40° C./75% RH, 1 week): 96.67 % area
RRT 1.025 (Isomer of HBI-3808) ([4]; 40° C./75% RH, 1 week): 2.52 % area
RRT 1.767 ([4]; 40° C./75% RH, 1 week): 0.34 % area
Total Impurities ([4]; 40° C./75% RH, 1 week): 3.33 % area
RRT 0.801 ([4]; 40° C./75% RH, 2 weeks): 0.37 % area
RRT 1.000 (HBI-3808) ([4]; 40° C./75% RH, 2 weeks): 97.47 % area
RRT 1.025 (Isomer of HBI-3808) ([4]; 40° C./75% RH, 2 weeks): 2.16 % area
Total Impurities ([4]; 40° C./75% RH, 2 weeks): 2.53 % area
RRT 0.801 ([4]; 40° C./75% RH, 4 weeks): 0.42 % area
RRT 0.959 ([4]; 40° C./75% RH, 4 weeks): 0.16 % area
RRT 1.000 (HBI-3808) ([4]; 40° C./75% RH, 4 weeks): 96.60 % area
RRT 1.025 (Isomer of HBI-3808) ([4]; 40° C./75% RH, 4 weeks): 2.34 % area
RRT 1.767 ([4]; 40° C./75% RH, 4 weeks): 0.25 % area
RRT 1.932 ([4]; 40° C./75% RH, 4 weeks): 0.22 % area
Total Impurities ([4]; 40° C./75% RH, 4 weeks): 3.40 % area
RRT 0.801 ([4]; 60° C., 1 week): 0.28 % area
RRT 0.959 ([4]; 60° C., 1 week): 0.15 % area
RRT 1.000 (HBI-3808) ([4]; 60° C., 1 week): 96.23 % area
RRT 1.025 (Isomer of HBI-3808) ([4]; 60° C., 1 week): 2.94 % area
RRT 1.767 ([4]; 60° C., 1 week): 0.40 % area
Total Impurities ([4]; 60° C., 1 week): 3.77 % area
RRT 0.801 ([4]; 60° C., 2 weeks): 0.38 % area
RRT 1.000 (HBI-3808) ([4]; 60° C., 2 weeks): 97.33 % area
RRT 1.025 (Isomer of HBI-3808) ([4]; 60° C., 2 weeks): 2.29 % area
Total Impurities ([4]; 60° C., 2 weeks): 2.67 % area
RRT 0.801 ([4]; 60° C., 4 weeks): 0.37 % area
RRT 0.959 ([4]; 60° C., 4 weeks): 0.19 % area
RRT 1.000 (HBI-3808) ([4]; 60° C., 4 weeks): 96.13 % area
RRT 1.025 (Isomer of HBI-3808) ([4]; 60° C., 4 weeks): 2.71 % area
RRT 1.767 ([4]; 60° C., 4 weeks): 0.36 % area
RRT 1.932 ([4]; 60° C., 4 weeks): 0.23 % area
Total Impurities ([4]; 60° C., 4 weeks): 3.87 % area
RRT 0.801 ([4]; T = 0): 0.35 % area
RRT 1.000 (HBI-3808) ([4]; T = 0): 96.83 % area
RRT 1.025 (Isomer of HBI-3808) ([4]; T = 0): 2.66 % area
RRT 1.767 ([4]; T = 0): 0.17 % area
Total Impurities ([4]; T = 0): 3.17 % area
input purity by HPLC ([4]; input material of the stability study (baseline)): 96.8 % area
XRPD of solids recovered at the end of the experiment [5]: consistent with sodium salt Pattern 2

Source: patent US20250326785A1, “SODIUM SALT AND ETHANOLAMINE SALT OF 23-HYDROXYTORMENTIC ACID” (HUYABIO International, LLC, priority 2024, published 2025)
